Results reported in patent US20110262502A1, “PULMONARY DELIVERY OF 17-HYDROXYPROGESTERONE CAPROATE (17-HPC)” (Prairie Pharmaceuticals LLC, priority 2010, published 2011).

How the values were obtained:
[1] = system: PHA-induced IL-2 release in IL-2 and IL-4 treated (steroid resistant) PBMCs; assay: IL-2/IL-4 induced steroid resistance model in PBMCs: dexamethasone inhibition of PHA-induced IL-2 release; type: cell-based, human; details: for PHA-induced IL-2 level: FIG. 5
Experimental: J Immunol 2009; 183; 164-171). […] Following PBMCs stimulation with mitogen phytohaemagglutinin (PHA), there is a strong correlation between cytokine secretion levels and steroid resistance as well as steroid sensitivity in vitro. Addition of IL-2, IL-4 and TNF-reduce steroid sensitivity.
PBMCs (2×10^6) were incubated with or without IL-2 (13 ng/ml) and IL-4 (6.5 ng/ml) for 48 hours in RPMI-1640 medium containing 10% FCS and 2 mM glutamine. […] IL-2 and IL-4 stimulated PBMCs were also plated at a concentration of 10^6 cells/ml in 96-well plates ready for PHA (15 μg/mL, 24 hours) stimulation of cytokine release and detection by ELISA.
IL-2/4 induced steroid resistance in PBMCs, a well-recognized study model, was used to evaluate potential modifiers of steroid resistance and sensitivity. PBMCs from healthy smokers were collected. Corticosteroid insensitivity or resistance was induced by adding IL-2 and IL-4 in peripheral blood mononuclear cells (PBMCs) from healthy male smokers (n=˜11). […] IL-2 levels were quantified using ELISA.
J Immunol 2009; 183; 164-171).
IL-2 levels were quantified using ELISA.

[2] = API particle size distribution (Dv(10), Dv(50), Dv(90), Span); type: physicochemical; details: 5% (w/w) in water, 15% Tween 80, 90 bar
Description: In determining and characterizing particle size, e.g., particle size of an API (active pharmaceutical ingredient), the particle size parameters Dv(10), Dv(50) and Dv(90) may be used. Particle size measurements are preferably expressed in terms of Dv(10), Dv(50), and Dv(90), wherein Dv(10) refers to the particle size below which 10% of the volume of material exists; Dv(50) refers to the particle size below which 50% of the volume of material exists; and Dv(90) refers to the particle size below which 90% of the volume of material exists.
Referring to Table 5, experiments were performed with a suspension comprising the active pharmaceutical ingredient (the API), i.e., 17-HPC was the API in these experiments, wherein 17-HPC was present at approximately five percent (5%) w/w in water; and the suspension also comprised the surfactant Tween 80 at approximately 15% in these experiments (processing conditions conducted at Pressure=90 bar). […] Particle size measurements are expressed in terms of Dv(10), Dv(50), and Dv(90), wherein Dv(10) refers to the particle size below which 10% of the volume of material exists; Dv(50) refers to the particle size below which 50% of the volume of material exists; and Dv(90) refers to the particle size below which 90% of the volume of material exists). […]
Exemplary particle size reduction experiments, and characterization of API (i.e., 17-HPC) particle size distribution, using a suspension prepared without a surfactant. Referring to Table 7, particle size reduction of 17-HPC was observed without using any surfactant. Experiments were performed with a suspension comprising the active pharmaceutical ingredient (the API), i.e., 17-HPC in these experiments, in water and without a surfactant. FIG. 16 depicts an exemplary API particle size distribution profile (17-HPC is the active ingredient) after a spray-drying (SD) process. Referring again to FIG. 16, and also to Table 7, an exemplary 17-HPC particle size distribution profile was obtained after approximately 10 to 55 cycles of milling. API particle size was measured after spray drying (SD). Particle size measurements are expressed in terms of Dv(10), Dv(50), and Dv(90), wherein Dv(10) refers to the particle size below which 10% of the volume of material exists; Dv(50) refers to the particle size below which 50% of the volume of material exists; and Dv(90) refers to the particle size below which 90% of the volume of material exists).

[3] = FIG. 4, high dose Dexamethasone 10^−6 M

CCCCCC(=O)O[C@]1(C(C)=O)CC[C@H]2[C@@H]3CCC4=CC(=O)CC[C@]4(C)[C@H]3CC[C@@]21C [17HPC, 17α-HYDROXYPROGESTERONE CAPROATE]
highest improvement rate in Imax [1, 3]: 18% | improvement rate in Imax at all dose levels [1, 3]: 16-18% | PHA-induced IL-2 level ([1]; Dexamethasone 10^−10 M + 17HPC 10^−5M): 1595 pg/mL | PHA-induced IL-2 level ([1]; Dexamethasone 10^−10 M + 17HPC 10^−7M): 1805 pg/mL | PHA-induced IL-2 level ([1]; Dexamethasone 10^−10 M + 17HPC 10^−10 M): 2119 pg/mL | subjects with more than 10% improvement in % maximal Dexamethasone inhibition ([1]; FIG. 6, Dexamethasone 10^−6 M): Ten out of 11 | Particle Size Dv(10) ([2]; after 8 cycles): 1.015 μm | Particle Size Dv(50) ([2]; after 8 cycles): 3.021 μm | Particle Size Dv(90) ([2]; after 8 cycles): 7.302 μm | Particle Size Span ([2]; after 8 cycles): 2.081 | Particle Size Dv(10) ([2]; after 16 cycles): 1.071 μm | Particle Size Dv(50) ([2]; after 16 cycles): 2.574 μm | Particle Size Dv(90) ([2]; after 16 cycles): 5.347 μm | Particle Size Span ([2]; after 16 cycles): 1.662 | Particle Size Dv(10) ([2]; after 25 cycles): 1.014 μm | Particle Size Dv(50) ([2]; after 25 cycles): 2.255 μm | Particle Size Dv(90) ([2]; after 25 cycles): 4.517 μm | Particle Size Span ([2]; after 25 cycles): 1.553
